What all share (experiment): Soft agar colony formation disk diffusion assay
Assay [1] has as its system MATB.WT. In kind it is cell-based, rat. From the text:
(§1) A more elaborate version of this fundamental assay, the soft agar colony formation disk diffusion assay was used. This assay defines the relative activity of one particular drug versus a tumoral cell line type. The effect of the test drug against tumoral cells could be measured by its inhibitory capacity against colony formation after the delivery of the compound, in different concentrations on an filter disk(4). A modified technique of this assay was used in order to investigate the antiproliferative activity of candidate compounds. Tumoral cells from solid tumors and ascitic lines were plated separately in a two layer agar matrix. Cell lines to be tested were suspended in an upper layer of 0.4% Noble agar (Difco#00142-01) in RPMI-1066 (Gibco#3201875) at a yield varying between 10^4 to 2×10^5 cells per 60 mm Petri dish. Plating efficiency was determined for each line in order to achieve an optimal number of colonies per dish. Plates were examined before drug administration to confirm a uniform dispersion of single cells. The bottom layer consisted of 0.8% Noble agar, 0.8% Tryptic Soy Broth (difco#0037001)in CMRL-1066/Fischer's. The bottom layers were used within 2 and 9 days of preparation. Plated dishes (bottom layer of agar, upper layer of cells and administered drug were incubated in humidified atmosphere at 37° C., 5% CO2 for 10-20 days depending upon the time necessary to observe adequate colonies (defined as a cell aggregate of more than 50 cells) both control and drug inhibited. Drugs were administered on a paper filter disk (Whatman No. 1) of 6.5 mm diameter placed on the upper layer at 1/3 distance from the edge of the dish. The anti-clonogenic activity of the compounds was measured as the zone of inhibition from the disk edge to the most proximal colonies. This zone of inhibition was checked on an inverted microscope (40×) and was measured with a micrometer mounted in the eyepiece. The ocular micrometer was calibrated with a stage micrometer set for a particular combination of ocular and objective lenses. […] We made a modification of the initial technique by not plating a solid tumor and a leukemia simultaneously in the same Petri dish. Anti-clonogenic tests performed on leukemia cell line have helped in the discovery of the majority of current clinically used cytostatic drugs. Our tests on solid tumor lines (animal or human) may help define active compounds with solid tumor specificity. […] Murine tumors were maintained IN VIVO in order to diminish the selection of subpopulations of cells normally present in the heterogenous IN VIVO tumor. The actual drug sensitivity assay was done IN VITRO. For these experiments cells from freshly excised tumors or from ascitic fluids were maintained in RPMI-1066. Both compounds were dissolved in DMSO (1 mg/100 ul) and brought to final volume (250 ul) with Millipore deionized sterile water. Further dilutions were made with […] volume of 25 ul of freshly prepared solution was placed on the filter disk and allowed to dry.

Assay [2] has as its system MATB/ADR. In kind it is cell-based, rat.
Text: as §1

Assay [3] has as its system MCF7/ADR. In kind it is cell-based, human. An excerpt:
(§2) A more elaborate version of this fundamental assay, the soft agar colony formation disk diffusion assay was used. This assay defines the relative activity of one particular drug versus a tumoral cell line type. The effect of the test drug against tumoral cells could be measured by its inhibitory capacity against colony formation after the delivery of the compound, in different concentrations on an filter disk(4). A modified technique of this assay was used in order to investigate the antiproliferative activity of candidate compounds. Tumoral cells from solid tumors and ascitic lines were plated separately in a two layer agar matrix. Cell lines to be tested were suspended in an upper layer of 0.4% Noble agar (Difco#00142-01) in RPMI-1066 (Gibco#3201875) at a yield varying between 10^4 to 2×10^5 cells per 60 mm Petri dish. Plating efficiency was determined for each line in order to achieve an optimal number of colonies per dish. Plates were examined before drug administration to confirm a uniform dispersion of single cells. The bottom layer consisted of 0.8% Noble agar, 0.8% Tryptic Soy Broth (difco#0037001)in CMRL-1066/Fischer's. The bottom layers were used within 2 and 9 days of preparation. Plated dishes (bottom layer of agar, upper layer of cells and administered drug were incubated in humidified atmosphere at 37° C., 5% CO2 for 10-20 days depending upon the time necessary to observe adequate colonies (defined as a cell aggregate of more than 50 cells) both control and drug inhibited. Drugs were administered on a paper filter disk (Whatman No. 1) of 6.5 mm diameter placed on the upper layer at 1/3 distance from the edge of the dish. The anti-clonogenic activity of the compounds was measured as the zone of inhibition from the disk edge to the most proximal colonies. This zone of inhibition was checked on an inverted microscope (40×) and was measured with a micrometer mounted in the eyepiece. The ocular micrometer was calibrated with a stage micrometer set for a particular combination of ocular and objective lenses. […] We made a modification of the initial technique by not plating a solid tumor and a leukemia simultaneously in the same Petri dish. Anti-clonogenic tests performed on leukemia cell line have helped in the discovery of the majority of current clinically used cytostatic drugs. Our tests on solid tumor lines (animal or human) may help define active compounds with solid tumor specificity. […] HUMAN TUMORS. […] LS180 (13) and BE1(14) were obtained from the Oncology Dept. of the Montreal General Hospital. […] Cell lines were routinely passaged twice a week by trypsinization and maintained in 25, or 75-sq. cm Falcon Plastic flasks at 37° C., 5% CO2 in humidified atmosphere. Both compounds were dissolved in DMSO (1 mg/100 ul) and brought to final volume (250 ul) with Millipore deionized sterile water. Further dilutions were made with […] volume of 25 ul of freshly prepared solution was placed on the filter disk and allowed to dry.

The subject of assay [4] is MCF7. In kind it is cell-based, human.
Text: as §2

Assay [5] concerns LS180. In kind it is cell-based, human.
Text: as §2

In assay [6] the test system is M5076. In kind it is cell-based, murine.
Text: as §1

The test system of assay [7] is B16. The assay is classed as cell-based, murine.
Text: as §1

Assay [8] relates to P388. In kind it is cell-based, murine.
Text: as §1

In assay [9] the test system is P388/ADR. The assay is classed as cell-based, murine.
Text: as §1

The test system of assay [10] is HT29. The assay is classed as cell-based, human.
Text: as §2, with “This assay defines the relative activity of one particular drug versus a tumoral cell line type.” left out, “Plates were examined before drug administration to confirm a uniform dispersion of single cells.” left out, “dish.” for “dish. Anti-clonogenic tests performed on leukemia cell line have helped in the discovery of the majority of current clinically used cytostatic drugs. Our tests on solid tumor lines (animal or human) may help define active compounds with solid tumor specificity.”

In the case of `CCOC(=O)C1Cc2c(O)c3c(c(O)c2CS1)C(=O)c1ccccc1C3=O` (stereo not shown) [BCH-713, 3-carbethoxy-5,12-dihydroxy-1,2,3,4-tetrahydro-(2-sulfur)naphthacene-6,11-dione], the zone of inhibition in assay [1] (10 μg/DISK) is recorded as 0 Zone Units; in [1] (100 μg/DISK), 27.4 ± 4.3 Zone Units; in [2] (10 μg/DISK), 0 Zone Units; in assay [2] (100 μg/DISK), 0 Zone Units; in assay [3] (10 μg/DISK), 24.0 ± 8.6 Zone Units; in [3] (100 μg/DISK), 94.5 ± 64.7 Zone Units. The zone of inhibition was determined as 0 Zone Units in assay [4] (10 μg/DISK); 0 Zone Units in assay [4] (100 μg/DISK); 0 Zone Units in assay [5] (10 μg/DISK); 45.7 ± 21.5 Zone Units in [5] (100 μg/DISK); 0 Zone Units in assay [6] (10 μg/DISK); 42.7 ± 8.6 Zone Units in [6] (100 μg/DISK). Moreover, the zone of inhibition in assay [7] (10 μg/DISK) turned out to be 0 Zone Units; in assay [7] (100 μg/DISK), 24.4 ± 8.6 Zone Units; in assay [8] (10 μg/DISK) it was 0 Zone Units; in assay [8] (100 μg/DISK), 45.7 ± 21.5 Zone Units; in assay [9] (10 μg/DISK), 0 Zone Units; in assay [9] (100 μg/DISK), 61.0 ± 0.0 Zone Units. The zone of inhibition in assay [10] (10 μg/DISK) and in assay [10] (100 μg/DISK) was 0 Zone Units in each case.
In the case of `COCOCC(=O)C1CC2=C(CO1)C(=O)c1c(cc3ccccc3c1O)C2=O` (stereo not shown) [BCH-714, 3-(2-methoxymethoxy)aceto-11-hydroxy-1,2,3,4-tetrahydro-(2-oxygen)-napthacene-5,12-dione], the zone of inhibition in [1] (10 μg/DISK), in assay [1] (100 μg/DISK), in [2] (10 μg/DISK), in assay [2] (100 μg/DISK), in [3] (10 μg/DISK) and in [3] (100 μg/DISK) was 0 Zone Units in each case. In addition, the zone of inhibition in assay [4] (10 μg/DISK) was found to be 0 Zone Units; in [4] (100 μg/DISK) it was 0 Zone Units; in assay [5] (10 μg/DISK) it was 9.0 ± 4.2 Zone Units; in assay [5] (100 μg/DISK), 42.0 ± 26.0 Zone Units; in assay [6] (10 μg/DISK) it was 15.5 ± 5.0 Zone Units; in assay [6] (100 μg/DISK), 55.0 ± 8.4 Zone Units. The zone of inhibition in assay [7] (10 μg/DISK) is listed as 0 Zone Units; in assay [7] (100 μg/DISK) it was 0 Zone Units; in assay [8] (10 μg/DISK), 0 Zone Units; in assay [8] (100 μg/DISK), 27.0 ± 4.2 Zone Units; in assay [9] (10 μg/DISK) it was 0 Zone Units; in [9] (100 μg/DISK) it was 0 Zone Units. Further, the zone of inhibition in assay [10] (10 μg/DISK) and in [10] (100 μg/DISK) was 0 Zone Units each time.

The values are drawn from US5593970A, “Heterocyclic anthracycline analogs” (priority 1994, dated 1997).
